Experimental data taken from US10555987B2, “GHRH agonists for the treatment of ischemic disorders” (UNIVERSITY OF MIAMI, priority 2012, dated 2020).
“Also recorded” adds a separate entry of the source. Non-standard residues stand in square brackets, D forms with d. Residues, ends and D or L forms follow the SMILES beside them. *: point of attachment. Phe(F5) = N[C@@H](Cc1c(F)c(F)c(F)c(F)c1F)C(=O)O; Desaminotyrosyl = O=C(CCc1ccc(O)cc1)*; NMeY = CN[C@@H](Cc1ccc(O)cc1)C(=O)O; Nle = CCCC[C@H](N)C(=O)O; Orn = NCCC[C@H](N)C(=O)O; Abu = CC[C@H](N)C(=O)O; GABA = NCCCC(=O)O

Tests used:
[1] = system: myocardial infarction (Fischer 344 rats); assay: Morphometric analysis, percentage of infarcted myocardium (Example 14); assay type: in vivo, rat; conditions: vs. placebo, FIG. 8; listed as MR-409
Description: MI was induced in female 6-month-old Fischer 344 rats by permanent ligation of left ventricular (LV) anterior descending coronary artery. Animals were randomly assigned to receive placebo or one of the following GHRH agonists (MR-356, MR-361, MR-367, MR-403, MR-404, MR-409 and MR-502) starting 2 hours post-surgery. All treatment (50 μg/kg) was given subcutaneously twice daily for 4 weeks. The Institutional Animal Care and Use committee of the University of Miami approved all protocols and experimental procedures.
Slides were prepared with H&E and Masson's trichrome stain to assess cardiac structure and the presence and extent of myocardial scar, respectively. The percentage of infarcted myocardium was calculated.

[2] = system: myocardial infarction (Fisher-344 rats); assay: Morphometric analysis of infarct size, rat MI model (Example 13); assay type: in vivo; conditions: 50 μg/kg s.c. twice daily for 4 weeks; mean ± SEM
Description: (§1) Myocardial infarction (MI) was induced by permanent ligation of the left coronary artery in female 6-month-old Fisher-344 rats. Animals were randomly assigned to receive placebo (DMSO+propylene glycol) or one of the GHRH-agonists (JI-38, MR-356/P-20356, MR-409/P-27409, all 50 μg/kg), starting 4 weeks post-MI. All treatment was given subcutaneously twice daily for 4 weeks.
Rat hearts were processed using routine histological procedures. Samples were fixed in formalin.
(§2) Paraffin sections were deparaffinized and rehydrated by immersion in xylene followed by a graded series of ethanol. Antigen retrieval was performed by a heat-induced method with citrate buffer (Dako, Carpinteria, Calif.). After blocking with 10% normal donkey serum, sections were incubated with a primary antibody at 37° C. for 1 hour, followed by application of secondary antibody. Omission of the primary antibodies on parallel sections was used as negative control. Nuclei were counterstained with DAPI (Invitrogen, Carlsbad, Calif.). The total numbers of positively-stained cells (c-kit, CD45, phospho-histone H3 [pH3]) were quantified per slide to calculate the number of cells per section on each sample. Morphometric analysis was performed using Adobe Photoshop CS3 (San Jose, Calif.).

[3] = system: myocardial infarction (Fisher-344 rats); assay: Immunostaining of heart tissue (pH3, c-kit, arterioles), rat MI model (Example 13); assay type: in vivo
Description: as §1, §2
Heart sections were co-stained with isolectin (endothelial cell marker) and vascular smooth muscle (SMA22a) to identify arterioles which play a crucial role in cardiac repair. […] An inverse correlation between number of arterioles and infarct size was observed (FIG. 5C).

GH release [4] = assay: In vivo endocrine activity, GH release after intravenous administration (Table 8); conditions: rat; for Stimulation of growth hormone levels after intravenous administration (in words): i.v.; for GH releasing potency in vivo relative to JI-38 (=1): i.v. injection
GH release [5] = assay: GH releasing potency in vivo, intravenous administration (Example 14, Table 13); set-up: species or system rat; conditions: i.v.; for Serum GH level at selected time after injection (ng/ml), 0 min / Serum GH level at selected time after injection (ng/ml), 5 min / Serum GH level at selected time after injection (ng/ml), 15 min: dose 1 μg/kg, mean ± SEM
Description: Male Sprague-Dawley rats, weighing 200-250 g, were purchased from Charles River Laboratory (Wilmington, Mass.) and used for experiments. All animal procedures were approved by the Veterans Affairs Animal Care and Use Committee and were conducted in accordance with additional institutional guidelines as well. Briefly, groups of 5-6 animals were used in each experiment. The rats were anesthetized with 50 mg/kg of sodium pentobarbital (Nembutal, Lundbeck Inc., Deerfield, Ill.). Twenty min after inducing anesthesia, GHRH(1-29)NH2, JI-38, or new analogs were injected into the animals intravenously (i.v.) or subcutaneously (s.c.). The peptides were dissolved in 0.01 M acetic acid to get 1 μg/μl stock solution, and then diluted with 5% mannitol. Control rats received 5% mannitol only. Blood samples were collected from the jugular vein at selected times and were used for serum preparation. Concentrations of GH in rat sera were determined by ELISA. The relative potencies of tested peptides were calculated using GHRH(1-29)NH2 and JI-38 for comparison, whose potency was defined as 1. The equivalent dosage of GHRH(1-29)NH2 to reach the same level of serum growth hormone release after injection of the specific tested peptide was determined from a GHRH(1-29)NH2 standard curve using Origin 6.0 software. […] Serum GH was determined using the rat Growth Hormone ELISA kit (ALPCO Diagnostics, Mill Valley, Calif.) according to the manufacturer's instruction. Absorbance at 405 nm was measured by a Victor 3 Multi-label Counter (Perkin-Elmer, Waltham, Md.).

GHRH receptor = molecular target: T1, GHRH receptor (Homo sapiens, UniProt Q02643); assay: GHRH receptor binding, competition with 125I-labeled JV-1-42, human pituitary membrane homogenates (Table 5); set-up: Normal human pituitaries were purchased from the National Hormone and Peptide Program; tissue National Hormone and Peptide Program (A.F. Parlow, Harbor-UCLA Medical Center, Torrance, Calif.); host or cells: normal human pituitary, membrane fraction
T1 sequence (Q02643 23-423): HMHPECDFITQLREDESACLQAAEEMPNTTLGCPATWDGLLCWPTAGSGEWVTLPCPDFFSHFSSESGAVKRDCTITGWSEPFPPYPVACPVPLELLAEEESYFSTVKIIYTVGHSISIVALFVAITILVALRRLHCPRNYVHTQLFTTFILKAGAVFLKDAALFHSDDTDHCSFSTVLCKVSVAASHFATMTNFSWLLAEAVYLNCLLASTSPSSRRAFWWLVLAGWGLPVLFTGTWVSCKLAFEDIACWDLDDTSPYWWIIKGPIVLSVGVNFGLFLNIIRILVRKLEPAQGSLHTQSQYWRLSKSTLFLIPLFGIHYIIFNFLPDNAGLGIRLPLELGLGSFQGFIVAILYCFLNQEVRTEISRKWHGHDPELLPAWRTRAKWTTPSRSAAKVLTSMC
Description: Normal human pituitaries were purchased from the National Hormone and Peptide Program (A.F. Parlow, Los Angeles, County Harbor-UCLA Medical Center, Torrance, Calif.). Briefly, in competitive binding analysis, ^125I-labeled JV-1-42 ([…]) was displaced by GHRH agonists at 10^−6 to 10^−12 M.
The final binding affinities were expressed as IC50 values and were calculated by using the LIGAND PC computerized curve-fitting program of Munson and Rodbard as modified by McPherson.

[6] = 50 μg/kg s.c. twice daily for 4 weeks, mean ± SEM

Relative affinity (Binding potency) vs GHRH (GHRH receptor; GHRH(1-29) = 1, Table 5) | Relative affinity (Binding potency) vs JI-38 (GHRH receptor; JI-38 = 1, Table 5) | Compound | infarct size (MI %) [1] | MI size (%) [2] | c-kit (positive cells in the heart) [3, 6] | phospho H3 (positive cells in the heart) [3, 6] | number of arterioles ([3]; isolectin / SMA22a co-staining of heart sections) | Stimulation of growth hormone levels after intravenous administration (in words) (GH release [4]) | GH releasing potency in vivo relative to JI-38 (=1) (GH release [4]; 15 min after) | GH releasing potency in vivo relative to JI-38 (=1) (GH release [4]; 30 min after) | Relative potency, 5 min (GH release [5]; 5 min, JI-38 = 1) | Relative potency, 15 min (GH release [5]; 15 min, JI-38 = 1) | Serum GH level at selected time after injection (ng/ml), 0 min (GH release [5]) | Serum GH level at selected time after injection (ng/ml), 5 min (GH release [5]; 5 min) | Serum GH level at selected time after injection (ng/ml), 15 min (GH release [5]; 15 min) | GH releasing potency in vivo relative to JI-38 (=1) (GH release [4]; 5 min after) | GH-releasing potency after intravenous administration (in words) (GH release [5])
 |  | CCCC[C@H](NC(=O)[C@@H](NC(=O)[C@H](CC(=O)O)NC(=O)[C@H](CCC(N)=O)NC(=O)[C@H](CC(C)C)NC(=O)[C@H](CC(C)C)NC(=O)[C@H](CCCN)NC(=O)[C@H](CCCNC(=N)N)NC(=O)[C@H](C)NC(=O)[C@H](CO)NC(=O)[C@H](CC(C)C)NC(=O)[C@H](CCC(N)=O)NC(=O)[C@H](CC)NC(=O)[C@H](CC(C)C)NC(=O)[C@@H](NC(=O)[C@H](CCCN)NC(=O)[C@H](CCCNC(=N)N)NC(=O)[C@H](Cc1ccc(O)cc1)NC(=O)[C@H](CO)NC(=O)[C@H](CC(N)=O)NC(=O)[C@@H](NC(=O)[C@H](Cc1ccccc1)NC(=O)[C@@H](NC(=O)[C@H](C)NC(=O)[C@H](CC(=O)O)NC(=O)[C@@H](C)NC(=O)[C@H](Cc1ccc(O)cc1)NC)[C@@H](C)CC)[C@@H](C)O)C(C)C)[C@@H](C)CC)C(=O)N[C@@H](CC(=O)O)C(=O)N[C@@H](CCCNC(=N)N)C(=O)NC [Peptide P-27409, [N—Me-Tyr^1, D-Ala^2, Orn^12, Abu^15, Orn^21, Nle^27, Asp^28]hGHRH(1-29)NH—CH3] (H-[NMeY][dA]DAIFTNSYR[Orn]VL[Abu]QLSAR[Orn]LLQDI[Nle]DR-NHMe) | significantly attenuated; also recorded: substantial reductions | 42 ± 1.9 % | 68 ± 5.5 | 47 ± 5.8 | significantly increased |  |  |  |  |  |  |  |  |  | 
 |  | CCCC[C@H](NC(=O)[C@@H](NC(=O)[C@H](CC(=O)O)NC(=O)[C@H](CCC(N)=O)NC(=O)[C@H](CC(C)C)NC(=O)[C@H](CC(C)C)NC(=O)[C@H](CCCN)NC(=O)[C@H](CCCNC(=N)N)NC(=O)[C@H](C)NC(=O)[C@H](CO)NC(=O)[C@H](CC(C)C)NC(=O)[C@H](CCC(N)=O)NC(=O)[C@H](CC)NC(=O)[C@H](CC(C)C)NC(=O)[C@@H](NC(=O)[C@H](CCCN)NC(=O)[C@H](CCCNC(=N)N)NC(=O)[C@H](Cc1ccc(O)cc1)NC(=O)[C@H](CO)NC(=O)[C@H](CCC(N)=O)NC(=O)[C@@H](NC(=O)[C@H](Cc1ccccc1)NC(=O)[C@@H](NC(=O)[C@H](C)NC(=O)[C@H](CC(=O)O)NC(=O)[C@@H](C)NC(=O)[C@H](Cc1ccc(O)cc1)NC)[C@@H](C)CC)[C@@H](C)O)C(C)C)[C@@H](C)CC)C(=O)N[C@@H](CC(=O)O)C(=O)N[C@@H](CCCNC(=N)N)C(=O)NC [Peptide P-27403, [N—Me-Tyr^1, D-Ala^2, Gln^8, Orn^12, Abu^15, Orn^21, Nle^27, Asp^28]hGHRH(1-29)NH—CH3] (H-[NMeY][dA]DAIFTQSYR[Orn]VL[Abu]QLSAR[Orn]LLQDI[Nle]DR-NHMe) |  |  |  |  |  | most potent | 5.01 | 4.01 | 1.19 | 1.35 | 47.7 ± 4.1 ng/mL | 642 ± 29.7 ng/mL | 268 ± 21.1 ng/mL |  | 
58.0 | 24.4 | CCCC[C@H](NC(=O)[C@@H](NC(=O)[C@H](CC(=O)O)NC(=O)[C@H](CCC(N)=O)NC(=O)[C@H](CC(C)C)NC(=O)[C@H](CC(C)C)NC(=O)[C@H](CCCN)NC(=O)[C@H](CCCNC(=N)N)NC(=O)[C@H](C)NC(=O)[C@H](CO)NC(=O)[C@H](CC(C)C)NC(=O)[C@H](CCC(N)=O)NC(=O)[C@H](CC)NC(=O)[C@H](CC(C)C)NC(=O)[C@@H](NC(=O)[C@H](CCCN)NC(=O)[C@H](CCCNC(=N)N)NC(=O)[C@H](Cc1ccc(O)cc1)NC(=O)[C@H](CO)NC(=O)[C@H](CC(N)=O)NC(=O)[C@@H](NC(=O)[C@H](Cc1c(F)c(F)c(F)c(F)c1F)NC(=O)[C@@H](NC(=O)[C@H](C)NC(=O)[C@H](CC(=O)O)NC(=O)[C@@H](C)NC(=O)CCc1ccc(O)cc1)[C@@H](C)CC)[C@@H](C)O)C(C)C)[C@@H](C)CC)C(=O)N[C@@H](CO)C(=O)N[C@@H](CCCNC(=N)N)C(=O)NCCCC(N)=O [Peptide P-25502, [Dat^1, D-Ala^2, Fpa5^6, Orn^12, Abu^15, Orn^21, Nle^27, Gab^30]hGHRH(1-30)NH2] (Desaminotyrosyl-[dA]DAI[Phe(F5)]TNSYR[Orn]VL[Abu]QLSAR[Orn]LLQDI[Nle]SR[GABA]-NH2) |  |  |  |  |  | most potent | 5.40 | 5.83 |  |  | 59.9 ± 15.9 ng/mL | 1253 ± 185 ng/mL | 575 ± 20.9 ng/mL | 6.76 | highest potency for GH release
